# Measured values published in patent publication US20040057926A1, “Modulation of the immune response through the manipulation of arginine levels” (LSU Medical Center, priority 2002, published 2004).
# Tests used:
# CAT-2B = CAT-2B (Homo sapiens, UniProt P52569); settings: read-out: Km for L-Arg; cited from earlier work
# Jurkat cells [1] = test: CD3ζ chain expression in Jurkat cells on L-arginine depletion or replenishment (Western blot, flow cytometry); format: cell-based
# Method: Next, it was tested whether L-arginine depletion altered the expression of the key elements of the T-cell antigen receptor and IL-2 receptor in Jurkat cells. […] The decreased expression of ζ chain was not due to an overall protein degradation since the expression of GAPDH and CD3ε was virtually unchanged over the same period of time. […] The initial decrease in CD3ζ could be seen as early as 24 hours, but continued up to 7 days in culture as compared to its expression in Jurkat cells cultured in C-RPMI that remains unchanged (data not shown).
# Reappearance of CD3ζ chain occurred either by adding L-arginine alone at a concentration of 100 μM (FIGS. 4a, dashed line, and 4b, lane 3), or by replacing the TCM with C-RPMI (FIGS. 4a, solid line, and 4b, lane 4). […] The data discussed is representative of at least five experiments in each case.
# ASE = ASE activity assay (L-ornithine production) in PM lysates; format: biochemical, mice; settings: NOHA 100 μM, Nor-NOHA 50 μM
# Method: Cell lysates from PM stimulated with IL-4+IL-13 or IFN-γ were tested for ASE activity by measuring the production of L-ornithine. In brief, cell lysates from PM stimulated with IL-4+IL-13 or IFN-γ in the presence or absence of NOHA or Nor-NOHA were added to 50 μl of Tris-HCl (50 mM; pH 7.5) containing 10 mM MnCl2. This mixture was heated at 55-60° C. for 10 min to activate ASE. The hydrolysis reaction from L-Arg to L-ornithine was identified by a colorimetric assay after the addition of ninhydrin solution and incubation at 37° C. for 1 h.
# Jurkat cells [2] = test: CD3ζ chain expression in Jurkat cells with H. pylori sonicate or proteins; format: cell-based; settings: NOHA 10 μg/ml; difference not statistically significant
# Method: Jurkat cells were cultured for 24 h in medium with the H. pylori sonicate at concentrations ranging from 1 μg/ml to 50 μg/ml. CagA (2 μg/ml) (Austral Biologicals; San Ramon, Calif.), VacA (4 μg/ml) (Austral), H. pylori urease A (2 μg/ml) (Austral), H. pylori urease B (2 μg/ml) (Austral) and E. coli LPS (500 ng/ml) (Sigma-Aldrich; St Louis, Mo.) were also used. Jurkat and T-cells were counted and stained with FITC-conjugated anti-human CD3 (Beckman-Coulter; Miami, Fla.) for 20 min in the dark. After washing with PBS the cells were stained for 8 min with phycoerythrin (PE)-conjugated anti-human CD3ζ (Beckman-Coulter; Miami, Fla.) in PBS containing 50 μg/ml of digitonin. The cells were washed twice in PBS and analyzed in an EPICS XL Coulter Flow Cytometer. The results compare the percentage of cells expressing CD3ζ as well as the mean fluorescence intensity.
# […] After addition of the sonicate plus NOHA or sonicate plus L-arginine mixture to the Jurkat cells, 1.0 μCi of ^3H-thymidine (NEN) was added per well, the cells were incubated at 37° C. for 18 h, harvested onto filters and counted in a β-counter (Packard).
# T lymphocytes = test: Co-culture in transwells of stimulated PM and stimulated normal T lymphocytes, CD3ζ expression; format: cell-based, human
# Method: T-cells were isolated from mononuclear cells of healthy donors by T-cell enrichment columns (R&D Systems, Minneapolis, Minn.) according to manufacturer specifications. T-cell purity (CD3+) ranged between 89-95%. The cycle of internalization and re-expression of the TCR-CD3 complex was induced by T-cell stimulation with 1 μg/ml of anti-CD3, 100 ng/ml of anti-CD28 (Becton Dickinson) and 10 μg/ml of goat anti-mouse IgG (KPL, Gaithersburg, Md.). Cells were stimulated in the absence of L-Arg and added to the co-cultures 24 h after stimulation.
# PM were cultured in 6 well plates in RPMI containing 150 μM L-Arg and stimulated with murine rIL-4 (50 U/ml) and murine rIL-13 (50 ng/ml), or murine rIFN-γ (100 U/ml) for 24 hours. Then 1×10^6 normal T-cells stimulated with anti-CD3 plus anti-CD28 or 1×10^6 Jurkat cells, were cultured in the top chamber of a transwell system having 0.4 μm pores (Falcon, Franklin lakes, N.J.). CD3ζ expression was measured in Jurkat cells or T lymphocytes at different time points. PM were detached using trypsin/EDTA and the expression of protein and RNA for CAT-2B, ASE I, ASE II and iNOS was tested by western blot and northern blot respectively. Cytoplasmic extracts from PM were used to test ASE activity. Supernatants from stimulated PM were used to measure NO production using the Griess reagent method (Molecular Probes, Eugene, Oreg.). In addition, the extra-cellular concentration of L-Arg was tested in supernatants by HPLC (Dr. Gu Yao Wu laboratory, University of Texas) as described previously. O'Quinn, P. R., D. A. Knabe, and G. Wu. 2002. Arginine catabolism in lactating porcine mammary tissue. J Anim Sci. 80:467-474.
# Flow cytometry analysis was performed as previously described. Taheri, F., J. B. Ochoa, Z. Faghiri, K. Culotta, H. J. Park, M. S. Lan, A. H. Zea, and A. C. Ochoa. 2001. […] Fluorescence acquisition and analysis were done using a Coulter-EPICS XL flow cytometer (Beckman-Coulter) with a 488 nm argon laser. The data were expressed as mean channel fluorescence intensity (MFI).
# CAT-2B, sequence (P52569 whole entry, species assumed): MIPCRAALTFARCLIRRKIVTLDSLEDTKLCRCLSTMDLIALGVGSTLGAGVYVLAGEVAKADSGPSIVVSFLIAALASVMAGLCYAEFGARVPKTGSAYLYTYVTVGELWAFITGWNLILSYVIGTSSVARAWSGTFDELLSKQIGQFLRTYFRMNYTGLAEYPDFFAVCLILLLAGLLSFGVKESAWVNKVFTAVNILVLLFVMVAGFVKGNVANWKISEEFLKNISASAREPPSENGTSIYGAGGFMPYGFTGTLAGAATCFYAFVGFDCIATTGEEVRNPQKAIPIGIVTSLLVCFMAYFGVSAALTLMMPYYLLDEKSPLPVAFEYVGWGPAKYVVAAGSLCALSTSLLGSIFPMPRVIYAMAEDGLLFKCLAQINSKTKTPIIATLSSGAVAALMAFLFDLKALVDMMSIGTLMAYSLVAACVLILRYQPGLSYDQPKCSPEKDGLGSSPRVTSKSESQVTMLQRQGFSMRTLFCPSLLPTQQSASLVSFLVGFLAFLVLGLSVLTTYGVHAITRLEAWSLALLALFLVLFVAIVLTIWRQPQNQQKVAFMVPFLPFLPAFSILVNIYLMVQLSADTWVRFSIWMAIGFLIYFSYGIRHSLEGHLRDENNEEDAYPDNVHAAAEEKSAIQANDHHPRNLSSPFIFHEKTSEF
SMILES,Km (CAT-2B),"L-Arg concentrations that cause the rapid decrease of CD3ζ chain (Jurkat cells [1]; Jurkat cells, in vitro)",loss of CD3ζ on replenishing L-arginine in the tissue culture medium (Jurkat cells [1]; L-arginine alone at 100 μM),intracellular ASE activity (ASE),CD3ζ chain expression in Jurkat cells treated with H. pylori sonicate (Jurkat cells [2]),CD3ζ in normal stimulated T lymphocytes co-cultured with IL-4+IL-13 activated PM (T lymphocytes)
N=C(N)NCCC[C@H](N)C(=O)O [L-arginine],100 µM,below 40 μM,fully reversible,–,–,–
"NC(=NCCC[C@H](N)C(=O)O)NO [NOHA, NG-hydroxy-L-arginine]",–,–,–,blocked intracellular ASE activity,partially inhibited the drop in CD3ζ chain expression,prevented the loss of CD3ζ
